Where a SMILES comes first, the peptide text is derived from it. [ ]: non-standard residue; d: D form. The star is where a group is joined. Nva = CCC[C@H](N)C(=O)O; Cbz = O=C(OCc1ccccc1)*
Test system: Bax degradation activity
Assay: cell-free Bax (or Bcl-2) degradation assay with extracts of inhibitor-pretreated cells
Assay type: cell-based, human
Procedure: FIGS. 9A-9F show Bax degradation depends on ubiquitination, proteasome and ATP. (FIG. 9A) Jurkat cells (0 h) were treated with either 50 μM LLnV or 10 μM lactacystin, followed by preparation of Bax immunoprecipitates (with clone 6A7), which were immunoblotted with an ubiquitin antibody. Positions of putative ubiquitinated Bax proteins (p47, p55) are indicated at left. The nature of the ˜30 kDa and ˜84 kDa remains unclear. (FIG. 9B) The [^35S]-labeled Bax (upper) or Bcl-2 (lower) protein (1 μl) were incubated at 37° C. for 2 h with either buffer Z only (lane 1) or […] protein extract of MCF-7 cells grown exponentially (lane 2) or pretreated for 8 h with […] LLnV (lane 3). (FIG. 9C) The [^35S]-labeled Bax protein (1 μl) was incubated with either buffer Z only (lane 1) or 100 μg MCF-7 cell lysate at 37° C. for 4 h, in the presence of an indicated inhibitor (100 mM; lanes 3-8) or an equal volume of DMSO (lane 2) in buffer Z. A weak band of ˜16 kDa (indicated by an arrow) is probably an intermediate product of proteasome-mediated Bax degradation. (FIG. 9D) The proteasome in MCF-7 whole cell lysate (W lys, lane 1) was precipitated by using either ultraspin (ULS) or a proteasome subunit a6 antibody (IP). Both supernatant (lanes 2, 4) and pellet (lanes 3, 5) fractions were examined by Western blot assay using antibody to the proteasome a6 subunit (MW 33 kDa). (FIG. 9E) Bax degradation assay was performed as in FIG. 9B, with addition of buffer Z (lane 1) or 100 μg protein from MCF-7 whole cell lysate (lane 2), ultraspun supernatant (lane 3) or plus the pellet (lane 4), immunodepleted supernatant (lane 5) or plus a purified 20S proteasome ([…]; lane 6), or the purified proteasome alone (2 μg; lane 7). (FIG. 9F) Bax degradation assay was performed as in FIG. 9B, in the absence (lane 3) or presence of 10 mM ATP (lane 2) or 10 mM ATP-y-S (lane 4).
In vitro Bax Degradation Assay: Human Bax-a cDNA subcloned into pcDNA3 was a gift from Dr. Hong-gang Wang. Human full length of bcl-2-a cDNA was cloned from Jurkat T cells and subcloned into pcDNA3.1(−) as described+. Both bax and bcl-2 plasmids were used for coupled in vitro transcription/translation (Promega; Madison, Wis.) in the presence of [^35S]methionine (Amersham Pharmacia Biotech; Piscataway, N.J.). Protein extracts were prepared from either MCF-7 cells or prostate tumor tissues in buffer Y (50 mM Tris-HCl, pH 7.4, 250 mM NaCl, 1% Triton X-100, 0.1% SDS, 1 mM EDTA), and used for Bax (or Bcl-2) degradation assay. […]

[1] = Jurkat T cells pretreated with LLnV (50 µM, 8 hours)

## CCC[C@@H](C=O)NC(=O)[C@H](CC(C)C)NC(=O)[C@H](CC(C)C)NC(=O)OCc1ccccc1 [LLnV] (Cbz-Leu-Leu-[Nva]-aldehyde)
[1]
  Bax degradation activity in the cell extract: inhibited
  levels of labeled Bcl-2 after in vitro incubation: no effects
MCF-7 cells pretreated for 8 h with 50 mM LLnV (FIG. 9B legend)
  cell-free Bax degradation activity: inhibited
Cells pretreated with LLnV
  BDA inhibition, VA-13 compared with MCF-7: a greater inhibition was observed in VA-13 than in MCF-7 cells

From US6692927B2, “Bax degradation involvement in tumor survival and progression” (University of South Florida, priority 2000, dated 2004)
